Data from PMC7734618 (Bioorganic & medicinal chemistry, 2008).
Counter-ions that a name gives are not always drawn.

Legend:
Assay type in all cases: cell-based
[1] = Cytotoxicity in PHA-stimulated human PBM cells; conditions: uninfected PHA-stimulated PBM cells
in vitro = conditions: human, CEM cells (T-lymphoblastoid cell line)
[2] = Cytotoxicity in Vero cells; conditions: African green monkey, Vero cells (kidney)
HIV-1LAI = experiment: Anti-HIV activity against HIV-1LAI in human PBM cells; conditions: HIV-1LAI in PBM cells

Structure (SMILES) | IC50 at 4 days [1] [µM] | IC50 at 3 days (in vitro) [µM] | IC50 at 2 days [2] [µM] | Anti-HIV activity compared with parent drug DOT (in words) (HIV-1LAI)
CC(=O)OC[C@@H]1OC[C@H](n2cc(C)c(=O)[nH]c2=O)O1 [Compound 1, Dioxolane thymine-5′-O-acetic ester] | > 100 |  |  | 
Cc1cn([C@H]2CO[C@@H](COC(=O)[C@@H](N)CC(C)C)O2)c(=O)[nH]c1=O [Compound 18, Dioxolane thymine-5′-O-l-leucinyl ester hydrochloride] | > 100 | > 100 |  | 
Cc1cn([C@H]2CO[C@@H](COC(=O)[C@H](N)Cc3ccccc3)O2)c(=O)[nH]c1=O [Compound 15, Dioxolane thymine-5′-O-d-phenylalanyl ester hydrochloride] | > 100 | > 100 | > 100 | 
Cc1cn([C@H]2CO[C@@H](COC(=O)[C@H](C)N)O2)c(=O)[nH]c1=O [Compound 13, Dioxolane thymine-5′-O-l-alanyl ester hydrochloride] | > 100 | > 100 |  | 
Cc1cn([C@H]2CO[C@@H](COC(=O)C3CC3)O2)c(=O)[nH]c1=O [Compound 7, Dioxolane thymine-5′-O-cyclopropanecarboxylic ester] | > 100 | > 100 |  | 
Cc1cn([C@H]2CO[C@@H](COCOC(=O)C(C)(C)C)O2)c(=O)[nH]c1=O [Compound 9, Dioxolane thymine-5′-O-pivaloyloxymethyl ether] | > 100 | > 100 |  | slightly reduced antiviral activity
Cc1cn([C@H]2CO[C@@H](COC(=O)C(C)(C)C)O2)c(=O)[nH]c1=O [Compound 6, Dioxolane thymine-5′-O-pivalic ester] | > 100 | > 100 |  | 
CCCCCCCCCCCCCCCC(=O)OC[C@@H]1OC[C@H](n2cc(C)c(=O)[nH]c2=O)O1 [Compound 5, Dioxolane thymine-5′-O-palmitic ester] | > 100 | > 100 |  | 
CCCCCCCCCCCC(=O)OC[C@@H]1OC[C@H](n2cc(C)c(=O)[nH]c2=O)O1 [Compound 4, Dioxolane thymine-5′-O-dodecanoic ester] | > 100 | > 100 |  | 
Cc1cn([C@H]2CO[C@@H](COC(=O)[C@@H](N)C(C)C)O2)c(=O)[nH]c1=O [Compound 16, Dioxolane thymine-5′-O-l-valyl ester hydrochloride] | > 100 | > 100 | > 100 | 
Cc1cn([C@H]2CO[C@@H](COC(=O)C3CCCCC3)O2)c(=O)[nH]c1=O [Compound 8, Dioxolane thymine-5′-O-cyclohexanecarboxylic ester] | > 100 | > 100 |  | 
CCCCCCCC(=O)OC[C@@H]1OC[C@H](n2cc(C)c(=O)[nH]c2=O)O1 [Compound 3, Dioxolane thymine-5′-O-octanotic ester] | > 100 | > 100 |  | 
Cc1cn([C@H]2CO[C@@H](COC(=O)[C@H](N)C(C)C)O2)c(=O)[nH]c1=O [Compound 17, Dioxolane thymine-5′-O-d-valyl ester hydrochloride] | > 100 | > 100 | > 100 | 
Cc1cn([C@H]2CO[C@@H](COC(=O)CN)O2)c(=O)[nH]c1=O [Compound 11, Dioxolane thymine-5′-O-glycyl ester hydrochloride] | > 100 | > 100 |  | 
CCCCC(=O)OC[C@@H]1OC[C@H](n2cc(C)c(=O)[nH]c2=O)O1 [Compound 2, Dioxolane thymine-5′-O-valeric ester] | > 100 | > 100 |  | 
Cc1cn([C@H]2CO[C@@H](COC(=O)[C@@H](N)Cc3ccccc3)O2)c(=O)[nH]c1=O [Compound 14, Dioxolane thymine-5′-O-l-phenylalanyl ester hydrochloride] | > 100 | > 100 | > 100 | 
